Our source for the IC50 values is BindingDB's records for doi:10.1021/acsmedchemlett.7b00164 (Shenyang Pharmaceutical University, 2017).

In general, IC50 refers to the concentration that gives 50% inhibition.

The assay can be described thus: Inhibition of PDGFR in mouse NIH/3T3 cells assessed as reduction in recombinant human PDGF-BB-induced cell proliferation after 42 hrs by cell titer 96 aqueous one solution based assay.
As for `COC(=O)c1ccc2c(c1)NC(=O)/C2=C(\Nc1ccc2c(c1)N(C(=O)CN1CC(C)OC(C)C1)CC2)c1ccccc1` (centres undefined), the half-inhibitory concentration (IC50) amounted to 0.15 µM. The figure for `COC(=O)c1ccc2c(c1)NC(=O)/C2=C(\Nc1ccc(N2CCC(CN3CCN(C)CC3)C2=O)cc1)c1ccccc1` (centres undefined) is 0.11 µM. The figure for `COC(=O)c1ccc2c(c1)NC(=O)/C2=C(\Nc1ccc(N2C(=O)CC[C@H]2CN2CCN(C)CC2)cc1)c1ccccc1` is 0.11 µM; for `COC(=O)c1ccc2c(c1)NC(=O)/C2=C(\Nc1ccc(N(C)C(=O)CN2CCN(C)CC2)cc1)c1ccccc1` [BIBF-1120] it is 0.085 µM. On to `COC(=O)c1ccc2c(c1)NC(=O)/C2=C(\Nc1ccc2c(c1)N(C(=O)CN1CCCC1=O)CC2)c1ccccc1`, for which the half-maximal inhibitory concentration (IC50) stood at 0.26 µM. On to `COC(=O)c1ccc2c(c1)NC(=O)/C2=C(\Nc1ccc2c(c1)N(C(=O)Cn1cccn1)CC2)c1ccccc1`, for which the IC50 came to 0.11 µM. The figure for `COC(=O)c1ccc2c(c1)NC(=O)/C2=C(\Nc1ccc(N2C(=O)CC[C@@H]2CN2CCN(C)CC2)cc1)c1ccccc1` is 0.097 µM; for `COC(=O)c1ccc2c(c1)NC(=O)/C2=C(\Nc1ccc2c(c1)N(C(=O)Cn1cncn1)CC2)c1ccccc1` it is 0.1 µM; for `COC(=O)c1ccc2c(c1)NC(=O)/C2=C(\Nc1ccc2c(c1)N(C(=O)CN1CCOCC1)CC2)c1ccccc1` it is 0.1 µM.
